One molecule from patent US20170281470A1, “METHOD AND APPARATUS FOR DRY GRANULATION” (ATACAMA LABS OY, priority 2006, published 2017) can be followed below.

This series in a line: Agglomeration during storage at room temperature and ambient humidity. The settings on record: stored in room temperature and ambient humidity. It is filed as physicochemical.

With `CN(C)C(=N)N=C(N)N` [100% metformin fine powder, metformin], the agglomeration during storage entry is reported as “heavy agglomeration”.
